Data on twelve molecules can be found in patent US9199999B2, “Substituted imidazopyrazines” (Bayer Intellectual Property GmbH, priority 2010, dated 2015).

The IC50 is the concentration needed to halve the response being measured.

human kinase Mps-1, sequence (P33981 whole entry): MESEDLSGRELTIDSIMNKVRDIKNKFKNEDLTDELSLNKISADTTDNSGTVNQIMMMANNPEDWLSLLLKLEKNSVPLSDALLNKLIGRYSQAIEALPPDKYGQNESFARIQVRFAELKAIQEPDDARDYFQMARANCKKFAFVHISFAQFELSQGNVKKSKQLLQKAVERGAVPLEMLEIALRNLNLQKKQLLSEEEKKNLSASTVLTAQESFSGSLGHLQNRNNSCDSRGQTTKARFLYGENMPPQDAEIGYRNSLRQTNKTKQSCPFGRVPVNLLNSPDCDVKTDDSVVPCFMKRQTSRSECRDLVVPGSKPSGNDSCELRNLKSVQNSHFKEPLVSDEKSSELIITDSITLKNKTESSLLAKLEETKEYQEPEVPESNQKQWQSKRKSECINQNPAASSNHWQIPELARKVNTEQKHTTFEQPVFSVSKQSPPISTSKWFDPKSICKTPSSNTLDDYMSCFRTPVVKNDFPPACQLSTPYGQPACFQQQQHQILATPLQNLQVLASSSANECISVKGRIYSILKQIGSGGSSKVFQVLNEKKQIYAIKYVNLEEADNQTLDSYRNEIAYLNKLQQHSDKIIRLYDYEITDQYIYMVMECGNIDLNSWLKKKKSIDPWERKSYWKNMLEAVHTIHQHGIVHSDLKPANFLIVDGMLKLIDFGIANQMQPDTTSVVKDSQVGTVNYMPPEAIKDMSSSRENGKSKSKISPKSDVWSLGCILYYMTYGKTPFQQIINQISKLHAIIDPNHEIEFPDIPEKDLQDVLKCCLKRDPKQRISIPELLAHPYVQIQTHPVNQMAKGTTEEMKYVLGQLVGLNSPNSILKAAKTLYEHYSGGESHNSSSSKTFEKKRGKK

The test concerns the target human kinase Mps-1 (Homo sapiens (Human), UniProt P33981). The settings on record: read-out: Mps-1 IC50; N-terminally GST-tagged human full length recombinant Mps-1; 10 μM ATP; 1 μM biotinylated peptide substrate; 60 min at 22° C.
For the molecule `Cc1cc(-c2cnc3c(NCC(C)C)nc(C#CCO)cn23)ccc1C(=O)NC1CC1` [Example 49, N-cyclopropyl-4-{6-(3-hydroxyprop-1-yn-1-yl)-8-[(2-methylpropyl)amino]imidazo[1,2-a]pyrazin-3-yl}-2-methylbenzamide], the IC50 amounted to 14 nM.

As to `C=C(C)CNc1nc(C#CCO)cn2c(-c3ccc(-c4cnc(C5CC5)[nH]4)cc3)cnc12` [Example 52, 3-{3-[4-(2-Cyclopropyl-1H-imidazol-5-yl)phenyl]-8-[(2-methylprop-2-en-1-yl)amino]imidazo[1,2-a]pyrazin-6-yl}prop-2-yn-1-ol], the IC50 worked out at 13 nM.

Take `CC(C)CNc1nc(C#CCO)cn2c(-c3ccc(S(=O)(=O)NC4CC4)cc3)cnc12` [Example 4, N-cyclopropyl-4-[6-(3-hydroxyprop-1-yn-1-yl)-8-(isobutylamino)imidazo[1,2-a]pyrazin-3-yl]benzenesulfonamide]: the IC50 came out at 1840 nM.

In the case of `OCC#Cc1cn2c(-c3ccc(-c4cnc(C5CC5)[nH]4)cc3)cnc2c(NCCCCO)n1` [Example 56, 4-({3-[4-(2-Cyclopropyl-1H-imidazol-5-yl)phenyl]-6-(3-hydroxyprop-1-yn-1-yl)imidazo[1,2-a]pyrazin-8-yl}amino)butan-1-ol], the IC50 is 23 nM.

`Cc1cc(-c2cnc3c(NCCC(F)(F)F)nc(C#CCO)cn23)ccc1C(=O)NC1(C#N)CC1` [Example 74, N-(1-cyanocyclopropyl)-4-{6-(3-hydroxyprop-1-yn-1-yl)-8-[(3,3,3-trifluoropropyl)amino]imidazo[1,2-a]pyrazin-3-yl}-2-methylbenzamide]: the IC50 amounted to 98 nM.

Regarding `O=S1(=O)CCN(CC#Cc2cn3c(-c4ccc(-c5cnc(C6CC6)[nH]5)cc4)cnc3c(NCCC(F)(F)F)n2)CC1` [Example 61, 3-[4-(2-cyclopropyl-1H-imidazol-5-yl)phenyl]-6-[3-(1,1-dioxidothiomorpholin-4-yl)prop-1-yn-1-yl]-N-(3,3,3-trifluoropropyl)imidazo[1,2-a]pyrazin-8-amine], the IC50 worked out at 6.8 nM.

As to `COc1cc(C(=O)NC2CC2)ccc1-c1cnc2c(NCCCN)nc(C#CCO)cn12` [Example 11, 4-{8-[(3-Aminopropyl)amino]-6-(3-hydroxyprop-1-yn-1-yl)imidazo[1,2-a]pyrazin-3-yl}-N-cyclopropyl-3-methoxybenzamide], the half-maximal inhibitory concentration (IC50) is 993 nM.

With `Cc1cc(-c2cnc3c(NCCC(F)(F)F)nc(C#CCO)cn23)ccc1C(=O)NCC(F)F` [Example 72, N-(2,2-difluoroethyl)-4-{6-(3-hydroxyprop-1-yn-1-yl)-8-[(3,3,3-trifluoropropyl)amino]imidazo[1,2-a]pyrazin-3-yl}-2-methylbenzamide], the IC50 was found to be 130 nM.

For the molecule `CC(C)(O)C#Cc1cn2c(-c3ccc(C(=O)NC4CC4)cc3)cnc2c(NCCCCO)n1` [Example 8, N-cyclopropyl-4-{8-[(4-hydroxybutyl)amino]-6-(3-hydroxy-3-methylbut-1-yn-1-yl)imidazo[1,2-a]pyrazin-3-yl}benzamide], the IC50 was determined as 22 nM.

Consider `C#Cc1cn2c(-c3ccc(C(=O)NCC(F)F)c(C)c3)cnc2c(NCCC(F)(F)F)n1` [Example 65, N-(2,2-difluoroethyl)-4-{6-ethynyl-8-[(3,3,3-trifluoropropyl)amino]imidazo[1,2-a]pyrazin-3-yl}-2-methylbenzamide], for which the IC50 was 215 nM.

For the molecule `CC(C)CNc1nc(C#Cc2ccccc2)cn2c(-c3ccc(S(=O)(=O)NC4CC4)cc3)cnc12` [Example 2, N-cyclopropyl-4-[8-(isobutylamino)-6-(phenylethynyl)imidazo[1,2-a]pyrazin-3-yl]benzenesulfonamide], the IC50 was found to be 20000 nM.

On to `C=CCNc1nc(C#CCO)cn2c(-c3ccc(-c4cnc(C5CC5)[nH]4)cc3)cnc12` [Example 53, 3-{8-(Allylamino)-3-[4-(2-cyclopropyl-1H-imidazol-5-yl)phenyl]imidazo[1,2-a]pyrazin-6-yl}prop-2-yn-1-ol], for which the IC50 was determined as 18 nM.
